Measurements published in US9290503B2, “Tricyclic compound derivatives useful in the treatment of neoplastic diseases, inflammatory disorders and immunomodulatory disorders” (CHEMBRIDGE CORPORATION, priority 2006, dated 2016).

How the values were obtained:
Type in all cases: cell-based
IGF1 receptor = molecular target: T1, IGF1 receptor (Homo sapiens, UniProt P08069); test: ELISA-based assay of IGF1 receptor autophosphorylation inhibition in cells; details: MCF7 cells, read-out: MCF7 IGF1R Phosphorylation IC50
T1 construct: MCF7 human breast cancer cells expressing IGF1 receptor; endogenous in cells; host or cells: MCF7 human breast cancer cells
Procedure: In another embodiment, compounds that interact with the IGF1R kinase domain are tested in a cell-based assay system. In accordance with this embodiment, cells expressing a full-length IGF1 receptor or a fragment thereof containing the IGF1R kinase domain, are contacted with a candidate or a control compound and the ability of the compound to block tyrosine kinase activity of IGF1R within a cell is determined. This assay may be used to screen a single compound or a large library of candidate compounds. […] The ability of the candidate compound to inhibit IGF1R kinase activity can be determined by methods known to those skilled in the art. For example, the inhibition can be determined by ELISA-type assay or Western blot analysis with cell lysates or immunoprecipitated IGF1R receptor using various anti-IGF1R and anti-phosphotyrosine antibodies.
In general, cells expressing IGF1R are treated with modulators (i.e., inhibitors or activators) of IGF1R kinase activity and cell lysates are produced from these treated cells. IGF1Rs are isolated from the lysate by immunoprecipitation and analyzed for phosphotyrosine content. Alternatively, or in addition, cellular protein substrates phosphorylated by IGFR may be immunoprecipitated from the lysates and their degree of tyrosine phosphorylation determined. […]

KMS18 = test: Cell proliferation assay, MTT, KMS18; details: Homo sapiens, KMS18, 72 h, standard 3-day proliferation assay
Excerpt: (§1) IGF1R and other tyrosine kinase inhibitors can inhibit the proliferation of certain cancer cell lines indicating their possible therapeutic utility for treating the corresponding cancer types. Cancer cell lines of interest and control normal lines, including CHO, HEK293, BA/F3, COLO205, PC3, DU145, MCF7, Panc1, ACHN, Hep G2, H460, K562, TT, U87-MG, CAOV-3, SK-MEL5, Karpas 299 and human multiple myeloma cell lines H929, MM1s, MM1r, UTMC2, CPM2, KMS11, My5, KMS12PE, My7, JJN3, KMS18, U266, SKMM2, RPMI-8226 are plated in white, clear-bottomed 384-well cell culture plates at 2500-5000 cells per well and supplied with dilutions of tested compounds After a desired period of time (typically 3 days), the number of viable cells is quantitated by using Cell Titer-Glo Luminescent Cell Viability Assay (Promega), a cell proliferation assay system based on detection of total amount of ATP present as a measure of cell metabolic activity. The plated cells are mixed with the Cell Titer-Glo developing reagent and counted in a luminescence multiwell plate reader according to the standard manufacturer's protocol to generate IC50 curves for cell proliferation inhibition. […] Alternatively, viable cells are quantitated by using the conventional colorimetric MTT assay. […] The formazan is then solubilized, and the concentration determined by optical density at 570 nm. […]

My5 = test: Cell proliferation assay, MTT, My5; details: Homo sapiens, 72 h, standard 3-day proliferation assay
Excerpt: as §1

SKMM2 = test: Cell proliferation assay, MTT, SKMM2; details: Homo sapiens, SK-MM-2, 72 h, standard 3-day proliferation assay
Excerpt: as §1

[1] = system: CHO (chinese hamster ovary); test: Cell proliferation assay, MTT, CHO; details: Cricetulus griseus, 72 h, standard 3-day proliferation assay
Excerpt: as §1

My7 = test: Cell proliferation assay, MTT, My7; details: Homo sapiens, 72 h, standard 3-day proliferation assay
Excerpt: as §1

[2] = system: HEK293 (human normal embryonic kidney); test: Cell proliferation assay, MTT, HEK293; details: HEK293, 72 h, standard 3-day proliferation assay, read-out: HEK IC50
Excerpt: as §1

MM1r = test: Cell proliferation assay, MTT, MM1r; details: Homo sapiens, MM.1R, 72 h, standard 3-day proliferation assay
Excerpt: as §1

KMS12PE = test: Cell proliferation assay, MTT, KMS12PE; details: Homo sapiens, KMS-12-PE, 72 h, standard 3-day proliferation assay
Excerpt: as §1

U266 = test: Cell proliferation assay, MTT, U266; details: Homo sapiens, U-266, 72 h, standard 3-day proliferation assay
Excerpt: as §1

RPMI-8226 = test: Cell proliferation assay, MTT, RPMI-8226; details: Homo sapiens, RPMI-8226, 72 h, standard 3-day proliferation assay
Excerpt: as §1

MM1s = test: Cell proliferation assay, MTT, MM1s; details: Homo sapiens, MM1.S, 72 h, standard 3-day proliferation assay
Excerpt: as §1

CPM2 = test: Cell proliferation assay, MTT, CPM2; details: Homo sapiens, 72 h, standard 3-day proliferation assay
Excerpt: as §1

H929 = test: Cell proliferation assay, MTT, H929; details: Homo sapiens, NCI-H929, 72 h, standard 3-day proliferation assay
Excerpt: as §1

JJN3 = test: Cell proliferation assay, MTT, JJN3; details: Homo sapiens, JJN-3, 72 h, standard 3-day proliferation assay
Excerpt: as §1

KMS11 = test: Cell proliferation assay, MTT, KMS11; details: Homo sapiens, KMS-11, 72 h, standard 3-day proliferation assay
Excerpt: as §1

UTMC2 = test: Cell proliferation assay, MTT, UTMC2; details: Homo sapiens, UTMC2, 72 h, standard 3-day proliferation assay
Excerpt: as §1

T1 sequence (P08069 31-1367): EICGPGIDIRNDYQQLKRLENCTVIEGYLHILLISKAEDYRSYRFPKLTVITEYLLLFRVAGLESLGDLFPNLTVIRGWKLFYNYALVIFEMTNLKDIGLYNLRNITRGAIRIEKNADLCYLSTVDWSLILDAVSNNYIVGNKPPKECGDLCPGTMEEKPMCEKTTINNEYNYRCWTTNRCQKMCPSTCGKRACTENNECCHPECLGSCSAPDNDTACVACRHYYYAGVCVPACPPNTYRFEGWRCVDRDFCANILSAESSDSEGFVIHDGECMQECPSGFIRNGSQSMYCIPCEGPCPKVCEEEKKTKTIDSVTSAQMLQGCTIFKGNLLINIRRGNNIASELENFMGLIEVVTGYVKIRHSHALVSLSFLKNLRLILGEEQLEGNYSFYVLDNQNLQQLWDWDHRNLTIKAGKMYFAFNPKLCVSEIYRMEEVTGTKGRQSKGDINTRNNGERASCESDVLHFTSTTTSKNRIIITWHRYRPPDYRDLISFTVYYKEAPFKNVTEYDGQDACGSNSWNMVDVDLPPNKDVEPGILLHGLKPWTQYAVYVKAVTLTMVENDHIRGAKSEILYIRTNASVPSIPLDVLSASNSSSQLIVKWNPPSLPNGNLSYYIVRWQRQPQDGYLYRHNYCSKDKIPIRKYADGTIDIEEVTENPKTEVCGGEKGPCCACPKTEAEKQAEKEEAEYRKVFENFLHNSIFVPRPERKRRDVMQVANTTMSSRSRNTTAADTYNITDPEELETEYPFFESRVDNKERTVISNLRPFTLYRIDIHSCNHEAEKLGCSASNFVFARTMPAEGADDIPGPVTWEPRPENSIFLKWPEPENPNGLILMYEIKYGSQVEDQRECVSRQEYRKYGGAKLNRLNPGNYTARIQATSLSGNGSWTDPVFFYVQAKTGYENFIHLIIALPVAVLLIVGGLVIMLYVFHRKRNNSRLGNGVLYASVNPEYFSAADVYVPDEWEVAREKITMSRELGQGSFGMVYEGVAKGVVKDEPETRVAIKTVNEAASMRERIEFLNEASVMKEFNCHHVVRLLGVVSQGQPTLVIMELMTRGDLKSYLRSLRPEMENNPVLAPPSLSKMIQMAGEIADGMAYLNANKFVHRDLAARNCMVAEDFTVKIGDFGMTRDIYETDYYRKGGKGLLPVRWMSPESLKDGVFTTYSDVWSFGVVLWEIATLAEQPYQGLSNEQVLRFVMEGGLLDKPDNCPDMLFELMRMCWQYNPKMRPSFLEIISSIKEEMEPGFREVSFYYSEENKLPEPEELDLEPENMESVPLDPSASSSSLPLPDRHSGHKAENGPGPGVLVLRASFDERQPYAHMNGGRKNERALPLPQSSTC

SMILES | IC50 (IGF1 receptor) | IC50 (KMS18) | IC50 (My5) | IC50 (SKMM2) | IC50 [1] | IC50 (My7) | IC50 [2] | IC50 (MM1r) | IC50 (KMS12PE) | IC50 (U266) | IC50 (RPMI-8226) | IC50 (MM1s) | IC50 (CPM2) | IC50 (H929) | IC50 (JJN3) | IC50 (KMS11) | IC50 (UTMC2)
CN1CCC(N2C(=O)c3cc4nc(-c5c(NCC(O)c6ccncc6)cc[nH]c5=O)[nH]c4cc3C2=O)CC1 (centres unmarked) [compound 7] | > 15 µM |  |  |  |  |  |  |  |  |  |  |  |  |  |  |  | 
CC(=O)CCN1CCC(N2Cc3cc4nc(-c5c(NCC(=O)COc6ccc(C)cc6C)cc[nH]c5=O)[nH]c4cc3C2=O)CC1 |  | 5 to 20 µM | 5 to 20 µM | 5 to 20 µM | ≥ 20 µM | 5 to 20 µM | ≥ 20 µM | 1 to 5 µM | 5 to 20 µM | 1 to 5 µM | 5 to 20 µM | 1 to 5 µM | 1 to 5 µM | 1 to 5 µM | 5 to 20 µM | 5 to 20 µM | < 0.5 µM
